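Each compound was tested at five concentrations against cells in 96-well plates for 48 hours. GI50 = concentration required for 50% inhibition of growth. TGI marks complete inhibition of growth.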
Legend:
Test in all cases: NCI tumour cell line growth inhibition, 48 h
[1] = test system: CAKI-1 renal
[2] = test system: HCT-116 colon
[3] = test system: HCT-15 colon
[4] = test system: HOP-92 NSCLC
[5] = test system: KM12 colon
[6] = test system: LOX IMVI melanoma
[7] = test system: NCI/ADR-RES ovarian
[8] = test system: OVCAR-5 ovarian
[9] = test system: SF-539 CNS
[10] = test system: SN12C renal

SMILES	GI50 [1] [µM]	TGI [1] [µM]	GI50 [2] [µM]	TGI [2] [µM]	GI50 [3] [µM]	TGI [3] [µM]	GI50 [4] [µM]	TGI [4] [µM]	GI50 [5] [µM]	TGI [5] [µM]	GI50 [6] [µM]	TGI [6] [µM]	GI50 [7] [µM]	TGI [7] [µM]	GI50 [8] [µM]	TGI [8] [µM]	GI50 [9] [µM]	TGI [9] [µM]	GI50 [10] [µM]	TGI [10] [µM]
CCOC(=O)N[C@H]1CCc2c(Br)c(OC)c(OC)c(OC)c2-c2ccc(SC)c(=O)cc21	< 0.0228	19.6	< 0.01	11.8	< 0.01	12.2	< 0.0137	6.19	< 0.01	3.79	< 0.01	12.5	0.025	7.58	0.0357	25.6	< 0.01	< 0.0106	< 0.0178	19.8
O=S(=O)(NCCNc1cc(-c2cn(-c3ccccc3)nc2-c2cccc(O)c2)ccn1)c1ccc(Cl)cc1	4.46	> 100	2.69	11.4	2.14	6.42	2.34	8.35	2.63	9.62	1.76	3.56	2.84	13.4	2.66	11	2.08	5.3	3.47	14
Cc1cc(C)n(C(=O)c2nn(-c3ccc(Cl)cc3)cc2O)n1	4.23	42.3	3.42	48.2	3.53	> 100	4.52	> 100	5.07	> 100	3.94	> 100	4.42	> 100	4.98	> 100	3.05	35.1	3.37	> 100
C#Cc1cccc(Oc2ccc(NC(=O)CCl)cc2)c1	> 82.5	> 82.5	30.9	> 82.5	6.36	> 82.5	> 82.5	> 82.5	> 82.5	> 82.5	18.1	> 82.5	> 82.5	> 82.5	> 82.5	> 82.5	> 82.5	> 82.5	> 82.5	> 82.5
CC1SC(c2c(Cl)cccc2Cl)N(NC(=O)C(O)c2ccccc2)C1=O (centres undefined)	62.1	> 100	56	> 100	47.3	> 100	57.8	> 100	44.1	> 100	60.7	> 100	45.4	> 100	> 100	> 100	> 100	> 100	> 100	> 100
O=C(Nc1ccc(Cl)cc1)c1cc(S(=O)(=O)Nc2nnc(-c3ccccc3)c(-c3ccccc3)n2)c(SCc2ccccc2)cc1Cl	24.8	> 59	19.8	46.5	32.8	> 64.2	25.3	66.8	21.9	> 62	17.3	35.1	> 50.2	> 80.2	36.4	> 58	35	> 100	16.4	38.4
COc1ccc(-c2nnc(N3CCN(C(=O)CN4CCN(c5ccc(Cl)cc5)CC4)CC3)nc2-c2ccc(OC)cc2)cc1	28.5	> 100	5.99	> 100	15.8	> 100	16.2	39.1	8.5	> 100	15.6	> 100	20.7	> 100	> 100	> 100	15.1	74.8	17.8	> 100
O=C1c2ccn(CCCCN3CCCCC3)c2C(=O)c2c1c(O)c1ccccc1c2O	1.63	3.83	7.76	> 53.9	2.74	7.98	3.68	22.9	8.55	27.5	1.72	4.3	14.4	55.6	17.9	> 46	6	42.1	16.5	45
C[C@]12C3CC[C@@]4(CO)C[C@]3(CCC1[C@](C)(C(=O)O)CC[C@@H]2O)CC4=O (some centres undefined)	> 100	> 100	> 100	> 100	> 100	> 100	> 100	> 100	> 100	> 100	> 100	> 100	> 100	> 100	> 100	> 100	> 100	> 100	> 100	> 100
C=C1CC2(CCCC3(CC(=C)C(=O)O3)C2(C)C)OC1=O (centres undefined)	–	7.43	–	5.22	–	1.99	–	19.3	–	21.8	–	3.77	–	27.9	–	3.33	–	11.4	–	10.7
NC(=S)N/N=C\c1nccc2c(N)cccc12	0.243	1.01	0.356	> 46	0.426	> 100	0.233	> 100	0.38	> 100	0.292	–	0.375	17.3	1.14	> 100	0.146	0.757	0.314	> 39.5
C1=C(c2ccccc2)SC=C(c2ccccc2)S1	–	> 100	–	> 100	–	> 100	–	> 100	–	> 100	–	> 100	–	64	–	> 100	–	> 100	–	> 100
O=c1c2ccccc2nc(-c2ccccc2)n1O	–	> 100	–	> 100	–	> 100	–	> 100	–	> 100	–	> 100	–	> 100	–	> 100	–	> 100	–	> 100

Reference: PubChem BioAssay (NCI)
